In US11339130B1 (Blade Therapeutics, Inc., priority 2016, dated 2022) one finds IC50 data, which are given here for 16 compounds.

Read-outs that look alike come from different tables or passages of the source.

What all share (format): biochemical
One experiment concerns the target T1, Human Calpain 1/NS1 (Homo sapiens, UniProt P07384).
T1 sequence (P07384 1-714): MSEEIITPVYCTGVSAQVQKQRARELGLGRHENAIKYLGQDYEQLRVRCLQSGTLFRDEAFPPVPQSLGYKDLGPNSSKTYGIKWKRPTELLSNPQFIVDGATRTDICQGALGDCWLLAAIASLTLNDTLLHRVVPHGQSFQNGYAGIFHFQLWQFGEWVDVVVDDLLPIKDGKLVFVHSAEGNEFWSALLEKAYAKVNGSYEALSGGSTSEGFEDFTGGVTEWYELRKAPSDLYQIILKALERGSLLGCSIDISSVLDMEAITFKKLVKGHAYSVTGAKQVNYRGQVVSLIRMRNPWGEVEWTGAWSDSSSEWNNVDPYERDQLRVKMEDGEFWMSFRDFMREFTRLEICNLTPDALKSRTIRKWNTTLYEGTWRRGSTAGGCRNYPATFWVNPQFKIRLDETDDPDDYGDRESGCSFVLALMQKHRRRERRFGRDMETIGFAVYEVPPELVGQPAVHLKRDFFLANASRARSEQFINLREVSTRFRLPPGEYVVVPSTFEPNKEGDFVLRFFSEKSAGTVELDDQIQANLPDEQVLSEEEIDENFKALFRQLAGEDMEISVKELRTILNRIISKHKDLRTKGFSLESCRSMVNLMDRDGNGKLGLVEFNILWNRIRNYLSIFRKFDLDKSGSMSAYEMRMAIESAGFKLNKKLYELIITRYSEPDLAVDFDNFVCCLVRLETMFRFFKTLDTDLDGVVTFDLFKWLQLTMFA
T1 sequence (P04632 1-268 partner): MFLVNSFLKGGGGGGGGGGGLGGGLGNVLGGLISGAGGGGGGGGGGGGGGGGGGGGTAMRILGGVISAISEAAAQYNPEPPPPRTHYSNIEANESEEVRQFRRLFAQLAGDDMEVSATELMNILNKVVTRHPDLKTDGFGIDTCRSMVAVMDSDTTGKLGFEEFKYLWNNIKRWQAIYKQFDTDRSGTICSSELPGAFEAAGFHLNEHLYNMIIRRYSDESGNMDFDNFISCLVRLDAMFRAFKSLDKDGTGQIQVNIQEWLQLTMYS
Put plainly: Calpain inhibition continuous fluorescence (FRET) assay, Human Calpain 1/NS1. Conditions: read-out: Human Calpain 1/NS1 IC50. Here is the method: (§1) Calpain 1, 2, and 9 activity and inhibition thereof was assessed by means of a continuous fluorescence assay. The SensoLyte 520 Calpain substrate (Anaspec Inc) was optimized for detecting calpain activity. This substrate contains an internally quenched 5-FAM/QXL™ 520 FRET pair. Calpains 1, 2, and 9 cleave the FRET substrate into two separate fragments resulting in an increase of 5-FAM fluorescence that is proportional to calpain activity
(§2) Assays were typically setup in black 384-well plates using automated liquid handling as follows. Calpain assay base buffer typically contains 50 mM Tris, pH 7.5, 100 mM NaCl and 1 mM DTT. Inhibitors were serially diluted in DMSO and used to setup 2× mixtures with calpains in the aforementioned buffer. After incubation at ambient temperature (25C), the reaction was initiated by adding a 2× mix of the fluorescent peptide substrate and CaCl2) (required for in-situ calpain activation) in the same buffer. Reaction progress curve data were typically collected for 10 min using excitation/emission wavelengths of 490 nm/520 nm on SpectraMax i3× or the FLIPR-Tetra plate readers (Molecular Devices Inc). Reaction rates were calculated from progress curve slopes typically over 1-5 min. Dose response curves (rate vs. log inhibitor concentration) were typically fit to a 4-parameter logistic function to extract IC50 values.

The target of the next experiment is T2, Human Calpain 2/NS1 (Homo sapiens, UniProt P17655).
T2 sequence (P17655 1-700): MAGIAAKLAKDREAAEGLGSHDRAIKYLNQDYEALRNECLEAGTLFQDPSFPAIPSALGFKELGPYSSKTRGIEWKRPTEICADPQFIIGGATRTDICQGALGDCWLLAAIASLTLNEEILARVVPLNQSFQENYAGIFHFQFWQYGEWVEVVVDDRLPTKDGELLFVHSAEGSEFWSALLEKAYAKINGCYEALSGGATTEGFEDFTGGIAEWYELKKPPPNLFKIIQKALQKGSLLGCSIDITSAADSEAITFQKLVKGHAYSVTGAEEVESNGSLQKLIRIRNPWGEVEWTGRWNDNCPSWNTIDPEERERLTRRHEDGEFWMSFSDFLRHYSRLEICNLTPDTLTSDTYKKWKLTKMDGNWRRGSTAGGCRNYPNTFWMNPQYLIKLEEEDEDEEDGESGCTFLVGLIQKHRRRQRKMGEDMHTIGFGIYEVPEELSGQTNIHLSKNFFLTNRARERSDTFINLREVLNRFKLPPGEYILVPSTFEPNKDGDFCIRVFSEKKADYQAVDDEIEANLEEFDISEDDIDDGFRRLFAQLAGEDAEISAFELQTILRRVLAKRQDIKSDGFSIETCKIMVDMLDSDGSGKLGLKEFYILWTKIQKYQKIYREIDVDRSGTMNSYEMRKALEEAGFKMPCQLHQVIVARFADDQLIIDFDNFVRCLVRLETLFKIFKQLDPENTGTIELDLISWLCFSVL
T2 sequence (P04632 1-268 partner): T1 sequence (P04632 1-268 partner)
Put plainly: Calpain inhibition continuous fluorescence (FRET) assay, Human Calpain 2/NS1. The note with it: read-out: Human Calpain 2/NS1 IC50. Here is the method: as §1, §2

The next experiment has as its target T3, Human Calpain 9/NS1 (Homo sapiens, UniProt O14815).
T3 sequence (O14815 1-690): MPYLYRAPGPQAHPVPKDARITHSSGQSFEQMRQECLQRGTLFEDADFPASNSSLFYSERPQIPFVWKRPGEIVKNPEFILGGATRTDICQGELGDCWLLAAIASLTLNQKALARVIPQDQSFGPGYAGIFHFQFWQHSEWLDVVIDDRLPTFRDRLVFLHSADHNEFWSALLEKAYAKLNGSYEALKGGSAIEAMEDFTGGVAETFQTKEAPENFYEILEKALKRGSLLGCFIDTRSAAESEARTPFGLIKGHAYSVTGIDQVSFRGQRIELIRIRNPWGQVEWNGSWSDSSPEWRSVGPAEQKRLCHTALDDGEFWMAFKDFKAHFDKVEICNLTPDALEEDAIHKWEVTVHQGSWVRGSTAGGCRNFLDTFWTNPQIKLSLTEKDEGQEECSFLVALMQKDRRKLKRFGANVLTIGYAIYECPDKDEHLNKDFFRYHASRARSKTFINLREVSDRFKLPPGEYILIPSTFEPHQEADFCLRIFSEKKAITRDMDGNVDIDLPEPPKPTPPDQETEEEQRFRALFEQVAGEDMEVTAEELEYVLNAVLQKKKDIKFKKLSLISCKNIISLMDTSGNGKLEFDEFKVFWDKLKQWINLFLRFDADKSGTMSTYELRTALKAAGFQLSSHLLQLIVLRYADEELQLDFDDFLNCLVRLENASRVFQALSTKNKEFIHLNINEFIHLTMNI
T3 sequence (P04632 1-268 partner): T1 sequence (P04632 1-268 partner)
Put plainly: Calpain inhibition continuous fluorescence (FRET) assay, Human Calpain 9/NS1. The note with it: read-out: Human Calpain 9/NS1 IC50. Here is the method: as §1, §2

As to `Cc1nc(-c2cccc(C(F)(F)F)n2)c(C(=O)NC(Cc2ccccc2)C(=O)C(N)=O)o1` (stereo not drawn) [Compound 287], the IC50 at Human Calpain 1/NS1 (Column A) was less than 3 µM; at Human Calpain 2/NS1 (Column B), 3 to 10 µM; on Human Calpain 9/NS1 (Column C) it was less than 3 µM.

As to `Cc1cc(C(F)(F)F)cc(-n2nc(C)cc2C(=O)N[C@@H](Cc2ccccc2)C(=O)C(=O)NC2CC2)n1` [Compound 206, (S)—N-(4-(cyclopropylamino)-3,4-dioxo-1-phenylbutan-2-yl)-3-methyl-1-(6-methyl-4-(trifluoromethyl)pyridin-2-yl)-1H-pyrazole-5-carboxamide], the IC50 at Human Calpain 1/NS1 (Column A) was less than 3 µM; on Human Calpain 2/NS1 (Column B), more than 10 µM; on Human Calpain 9/NS1 (Column C) it was more than 10 µM.

`NC(=O)C(=O)[C@H](Cc1ccccc1)NC(=O)c1occc1-c1ccccc1` [Compound 104, (S)—N-(4-amino-3,4-dioxo-1-phenylbutan-2-yl)-3-phenylfuran-2-carboxamide]: the IC50 on Human Calpain 1/NS1 (Column A), on Human Calpain 2/NS1 (Column B) and on Human Calpain 9/NS1 (Column C) was less than 3 µM each time.

On to `Cc1ncc(C(=O)NC(Cc2ccccc2)C(=O)C(N)=O)n1-c1ccccc1` (stereo not drawn) [Compound 318, N-(4-amino-3,4-dioxo-1-phenylbutan-2-yl)-2-methyl-1-phenyl-1H-imidazole-5-carboxamide], for which the IC50 was less than 3 µM at Human Calpain 1/NS1, 3 to 10 µM on Human Calpain 2/NS1 and less than 3 µM at Human Calpain 9/NS1.

For `O=C[C@H](Cc1ccccc1)NC(=O)c1cncn1-c1ccccc1` [Compound 1, (S)—N-(1-oxo-3-phenylpropan-2-yl)-1-phenyl-1H-imidazole-5-carboxamide], the IC50 at Human Calpain 1/NS1 (Column A), at Human Calpain 2/NS1 (Column B) and on Human Calpain 9/NS1 (Column C) was less than 3 µM in each case.

In the case of `CC(C)c1cc(C(=O)N[C@@H](Cc2ccccc2)C(=O)C(N)=O)n(-c2ccccc2)n1` [Compound 117, (S)—N-(4-amino-3,4-dioxo-1-phenylbutan-2-yl)-3-isopropyl-1-phenyl-1H-pyrazole-5-carboxamide], the IC50 at Human Calpain 1/NS1 (Column A), at Human Calpain 2/NS1 (Column B) and on Human Calpain 9/NS1 (Column C) was 3 to 10 µM throughout.

`O=C[C@H](Cc1ccccc1)NC(=O)c1cncn1-c1ccccn1` [Compound 31, (S)—N-(1-oxo-3-phenylpropan-2-yl)-1-(pyridin-2-yl)-1H-imidazole-5-carboxamide]: the IC50 at Human Calpain 1/NS1 (Column A), at Human Calpain 2/NS1 (Column B) and at Human Calpain 9/NS1 (Column C) was less than 3 µM each time.

`Cn1cnc(C(=O)N[C@@H](Cc2ccccc2)C(=O)C(N)=O)c1-c1ccccc1` [Compound 269, (S)—N-(4-amino-3,4-dioxo-1-phenylbutan-2-yl)-1-methyl-5-phenyl-1H-imidazole-4-carboxamide]: the IC50 was 3 to 10 µM at Human Calpain 1/NS1 (Column A), 3 to 10 µM on Human Calpain 2/NS1 (Column B) and less than 3 µM on Human Calpain 9/NS1 (Column C).

On to `Cn1cc(C(=O)NC(Cc2ccccc2)C(=O)C(N)=O)c(N2CCOCC2)n1` (stereo not drawn) [Compound 614, N-(4-amino-3,4-dioxo-1-phenylbutan-2-yl)-1-methyl-3-morpholino-1H-pyrazole-4-carboxamide], for which the IC50 at Human Calpain 1/NS1, at Human Calpain 2/NS1 and at Human Calpain 9/NS1 was 3 to 10 µM each time.

Take `Cc1noc(-n2ccc(-c3ccccc3)n2)c1C(=O)N[C@@H](Cc1ccccc1)C(=O)C(N)=O` [Compound 211, (S)—N-(4-amino-3,4-dioxo-1-phenylbutan-2-yl)-3-methyl-5-(3-phenyl-1H-pyrazol-1-yl)isoxazole-4-carboxamide]: the IC50 on Human Calpain 1/NS1 (Column A), on Human Calpain 2/NS1 (Column B) and at Human Calpain 9/NS1 (Column C) was less than 3 µM each time.

`CCCC[C@H](NC(=O)c1c(C)noc1-c1ccccc1)C(=O)C(N)=O` [Compound 62, (S)—N-(1-amino-1,2-dioxoheptan-3-yl)-3-methyl-5-phenylisoxazole-4-carboxamide]: the IC50 on Human Calpain 1/NS1 (Column A), at Human Calpain 2/NS1 (Column B) and on Human Calpain 9/NS1 (Column C) was less than 3 µM throughout.

As for `NC(=O)C(=O)[C@H](Cc1ccccc1)NC(=O)c1scnc1-n1cc2ccccc2n1` [Compound 37, (S)—N-(4-amino-3,4-dioxo-1-phenylbutan-2-yl)-4-(2H-indazol-2-yl)thiazole-5-carboxamide], the IC50 on Human Calpain 1/NS1 (Column A), at Human Calpain 2/NS1 (Column B) and at Human Calpain 9/NS1 (Column C) was less than 3 µM in each case.

For the compound `Cc1ncn(-c2ccccc2)c1C(=O)N[C@@H](Cc1ccccc1)C(=O)C(N)=O` [Compound 290, (S)—N-(4-amino-3,4-dioxo-1-phenylbutan-2-yl)-4-methyl-1-phenyl-1H-imidazole-5-carboxamide], the IC50 on Human Calpain 1/NS1 (Column A), on Human Calpain 2/NS1 (Column B) and at Human Calpain 9/NS1 (Column C) was less than 3 µM in each case.

`Cc1cn(-c2ccccc2)c(C(=O)N[C@@H](Cc2ccccc2)C(=O)C(N)=O)n1` [Compound 319, (S)—N-(4-amino-3,4-dioxo-1-phenylbutan-2-yl)-4-methyl-1-phenyl-1H-imidazole-2-carboxamide]: the IC50 at Human Calpain 1/NS1, on Human Calpain 2/NS1 and on Human Calpain 9/NS1 was less than 3 µM each time.

Consider `Cc1cc(C(=O)N[C@@H](Cc2ccccc2)C(=O)C(N)=O)n(-c2ccncc2)n1` [Compound 209, (S)—N-(4-amino-3,4-dioxo-1-phenylbutan-2-yl)-3-methyl-1-(pyridin-4-yl)-1H-pyrazole-5-carboxamide], for which the IC50 on Human Calpain 1/NS1 (Column A), on Human Calpain 2/NS1 (Column B) and on Human Calpain 9/NS1 (Column C) was less than 3 µM in each case.

As to `Cc1cc(C(=O)N[C@H](C=O)Cc2ccccc2)nn1-c1ccccc1` [Compound 5], the IC50 is more than 10 µM at Human Calpain 1/NS1 (Column A), 3 to 10 µM at Human Calpain 2/NS1 (Column B) and 3 to 10 µM at Human Calpain 9/NS1 (Column C).
